{"source": "patent US12492186B2", "about": "“Bicyclic heterocyclic compounds useful as IRAK4 inhibitors” (BRISTOL-MYERS SQUIBB COMPANY, priority 2019, dated 2025)", "key": {"IRAK4": {"target": "IRAK4 (Homo sapiens (Human), UniProt Q9NWZ3)", "sequence (Q9NWZ3 whole entry, species assumed)": "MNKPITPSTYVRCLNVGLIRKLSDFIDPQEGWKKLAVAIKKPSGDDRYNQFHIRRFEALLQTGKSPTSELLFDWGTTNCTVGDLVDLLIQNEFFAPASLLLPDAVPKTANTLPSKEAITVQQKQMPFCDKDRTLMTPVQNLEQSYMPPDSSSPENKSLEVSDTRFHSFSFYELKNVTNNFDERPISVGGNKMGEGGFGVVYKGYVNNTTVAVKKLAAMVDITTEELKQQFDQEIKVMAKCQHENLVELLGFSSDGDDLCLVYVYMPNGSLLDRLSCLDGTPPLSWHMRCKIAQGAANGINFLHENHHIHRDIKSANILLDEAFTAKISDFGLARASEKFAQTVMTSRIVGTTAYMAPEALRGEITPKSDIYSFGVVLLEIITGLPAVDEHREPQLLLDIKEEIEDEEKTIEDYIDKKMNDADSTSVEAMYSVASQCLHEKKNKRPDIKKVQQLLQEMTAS", "test": "IRAK4 Inhibition Assay", "type": "biochemical", "details": "ATP 500 μM; IRAK4 0.6 nM; 60 min room temperature; Caliper LABCHIP 3000"}, "Human whole blood": {"test_system": "Human whole blood", "test": "IRAK4 Whole Blood Assay (IL-6 levels after stimulation with TLR2 agonist lipoteichoic acid)", "type": "cell-based", "details": "10 μg/mL lipoteichoic acid, 5 hours", "method_in_brief": "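ACD-A anticoagulated human whole blood preincubated with compound 60 min at 37 °C, 5% CO2, then stimulated 5 h with lipoteichoic acid at 10 μg/mL final. IL-6 in supernatants measured by flow cytometry bead assay.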"}}, "data": [{"compound": "CCNc1c(C(=O)NC[C@@H](F)C(C)(C)O)cnc2ccc(-c3cn[nH]c3)cc12", "note": "[Example 27, (R)-4-(ethylamino)-N-(2-fluoro-3-hydroxy-3-methylbutyl)-6-(1H-pyrazol-4-yl)quinoline-3-carboxamide]", "values": [{"measurement": "IC50", "setting": "IRAK4", "value": 0.0089, "unit": "µM"}, {"measurement": "EC50", "setting": "Human whole blood", "value": 2.82, "unit": "µM"}]}, {"compound": "CC(C)Nc1c(C(=O)NCCC(C)(C)O)cnc2ccc(-c3cn[nH]c3)cc12", "note": "[Example 17, N-(3-hydroxy-3-methylbutyl)-4-(isopropylamino)-6-(1H-pyrazol-4-yl)quinoline-3-carboxamide]", "values": [{"measurement": "IC50", "setting": "IRAK4", "value": 0.008, "unit": "µM"}, {"measurement": "EC50", "setting": "Human whole blood", "value": 0.936, "unit": "µM"}]}, {"compound": "CC(C)Nc1c(C(=O)NCCN2CCS(=O)(=O)CC2)nnc2ccc(-c3cn[nH]c3)cc12", "note": "[Example 160, N-(2-(1,1-dioxidothiomorpholino)ethyl)-4-(isopropylamino)-6-(1H-pyrazol-4-yl)cinnoline-3-carboxamide]", "values": [{"measurement": "IC50", "setting": "IRAK4", "value": 0.0027, "unit": "µM"}, {"measurement": "EC50", "setting": "Human whole blood", "value": 2.09, "unit": "µM"}]}, {"compound": "CC(C)Nc1c(C(=O)NCCc2ccncc2)cnc2ccc(-c3cn[nH]c3)cc12", "note": "[Example 109, 4-(isopropylamino)-6-(1H-pyrazol-4-yl)-N-(2-(pyridin-4-yl)ethyl)quinoline-3-carboxamide]", "values": [{"measurement": "IC50", "setting": "IRAK4", "value": 0.0044, "unit": "µM"}, {"measurement": "EC50", "setting": "Human whole blood", "value": 2.37, "unit": "µM"}]}, {"compound": "CC(=O)N1CCC(n2cc(-c3cnc4ccc(-c5cn[nH]c5)cc4c3NC(C)C)nn2)CC1", "note": "[Example 135, 1-(4-(4-(4-(isopropylamino)-6-(1H-pyrazol-4-yl)quinolin-3-yl)-1H-1,2,3-triazol-1-yl)piperidin-1-yl)ethan-1-one]", "values": [{"measurement": "IC50", "setting": "IRAK4", "value": 0.0031, "unit": "µM"}, {"measurement": "EC50", "setting": "Human whole blood", "value": 0.603, "unit": "µM"}]}, {"compound": "O=C(NCCCc1ccncc1)c1cnc2ccc(-c3cn[nH]c3)cc2c1NC1CC1", "note": "[Example 118, 4-(cyclopropylamino)-6-(1H-pyrazol-4-yl)-N-(3-(pyridin-4-yl)propyl)quinoline-3-carboxamide]", "values": [{"measurement": "IC50", "setting": "IRAK4", "value": 0.0108, "unit": "µM"}, {"measurement": "EC50", "setting": "Human whole blood", "value": 3.15, "unit": "µM"}]}, {"compound": "CC(C)Nc1c(C(=O)NCCN2CCS(=O)(=O)CC2)cnc2ccc(-c3cn[nH]c3)cc12", "note": "[Example 94, N-(2-(1,1-dioxidothiomorpholino)ethyl)-4-(isopropylamino)-6-(1H-pyrazol-4-yl) quinoline-3-carboxamide]", "values": [{"measurement": "IC50", "setting": "IRAK4", "value": 0.0095, "unit": "µM"}, {"measurement": "EC50", "setting": "Human whole blood", "value": 2.24, "unit": "µM"}]}, {"compound": "CC(C)Nc1c(C(=O)NC2CCN(C(=O)N3CCOCC3)CC2)cnc2ccc(-c3cn[nH]c3)cc12", "note": "[Example 82, 4-(isopropylamino)-N-(1-(morpholine-4-carbonyl)piperidin-4-yl)-6-(1H-pyrazol-4-yl) quinoline-3-carboxamide]", "values": [{"measurement": "IC50", "setting": "IRAK4", "value": 0.009, "unit": "µM"}, {"measurement": "EC50", "setting": "Human whole blood", "value": 0.455, "unit": "µM"}]}, {"compound": "CC(C)Nc1c(C(=O)NCCC2CC2)cnc2ccc(-c3cncs3)nc12", "note": "[Example 148, N-(2-cyclopropylethyl)-4-(isopropylamino)-6-(thiazol-5-yl)-1,5-naphthyridine-3-carboxamide]", "values": [{"measurement": "IC50", "setting": "IRAK4", "value": 0.0164, "unit": "µM"}, {"measurement": "EC50", "setting": "Human whole blood", "value": 5.42, "unit": "µM"}]}, {"compound": "CC(C)Nc1c(C(=O)NC[C@@H](F)C(C)(C)O)nnc2ccc(-c3cn[nH]c3)cc12", "note": "[Example 158, (R)—N-(2-fluoro-3-hydroxy-3-methylbutyl)-4-(isopropylamino)-6-(1H-pyrazol-4-yl) cinnoline-3-carboxamide]", "values": [{"measurement": "IC50", "setting": "IRAK4", "value": 0.0016, "unit": "µM"}, {"measurement": "EC50", "setting": "Human whole blood", "value": 0.802, "unit": "µM"}]}, {"compound": "CC(C)CCNC(=O)c1cnc2ccc(-c3cn[nH]c3)cc2c1NC(C)C", "note": "[Example 15, N-isopentyl-4-(isopropylamino)-6-(1H-pyrazol-4-yl)quinoline-3-carboxamide]", "values": [{"measurement": "IC50", "setting": "IRAK4", "value": 0.0077, "unit": "µM"}, {"measurement": "EC50", "setting": "Human whole blood", "value": 0.675, "unit": "µM"}]}, {"compound": "COC(=O)N[C@H]1CC[C@H](NC(=O)c2cnc3ccc(-c4cn[nH]c4)cc3c2NC(C)C)C1", "note": "[Example 26, methyl ((1S,3S)-3-(4-(isopropylamino)-6-(1H-pyrazol-4-yl)quinoline-3-carboxamido)cyclopentyl) carbamate]", "values": [{"measurement": "IC50", "setting": "IRAK4", "value": 0.0123, "unit": "µM"}, {"measurement": "EC50", "setting": "Human whole blood", "value": 1.46, "unit": "µM"}]}, {"compound": "CC(O)CCNC(=O)c1cnc2ccc(-c3cn[nH]c3)cc2c1NC(C)C", "note": "(stereo not drawn) [Example 36, N-(3-hydroxybutyl)-4-(isopropylamino)-6-(1H-pyrazol-4-yl)quinoline-3-carboxamide]", "values": [{"measurement": "IC50", "setting": "IRAK4", "value": 0.0137, "unit": "µM"}, {"measurement": "EC50", "setting": "Human whole blood", "value": 0.759, "unit": "µM"}]}, {"compound": "CCOC(=O)N1CCC(NC(=O)c2cnc3ccc(-c4cn[nH]c4)cc3c2NC(C)C)CC1", "note": "[Example 80, ethyl 4-(4-(isopropylamino)-6-(1H-pyrazol-4-yl)quinoline-3-carboxamido)piperidine-1-carboxylate]", "values": [{"measurement": "IC50", "setting": "IRAK4", "value": 0.013, "unit": "µM"}, {"measurement": "EC50", "setting": "Human whole blood", "value": 1.32, "unit": "µM"}]}, {"compound": "CC(C)Nc1c(C(=O)NCCC(F)(F)F)cnc2ccc(-c3cn[nH]c3)nc12", "note": "[Example 142, 4-(isopropylamino)-6-(1H-pyrazol-4-yl)-N-(3,3,3-trifluoropropyl)-1,5-naphthyridine-3-carboxamide]", "values": [{"measurement": "IC50", "setting": "IRAK4", "value": 0.0064, "unit": "µM"}, {"measurement": "EC50", "setting": "Human whole blood", "value": 0.138, "unit": "µM"}]}]}
